In the experiment the test system is Histone H3 Citrullination in Neutrophils. As to the kind of experiment: Citrullination ELISA (Citrullinated Histone H3) in calcium ionophore stimulated neutrophils. The settings on record: Neutrophil; human neutrophils, 25 μM calcium ionophore, CitH3 ELISA. It is filed as cell-based. In a few lines: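 Freshly isolated human donor neutrophils in RPMI with 2% BSA and 1 mM CaCl2 were pre-incubated 30 min with compound (10, 1, 0.1 μM), then stimulated 30 min with 25 μM calcium ionophore. After S7 nuclease digestion, lysates were assayed by citrullinated histone H3 ELISA (450 nm); IC50 from sigmoidal fits.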
(An ELISA detects its analyte on a solid surface through an enzyme-linked reagent.)
A word on the IC50: it is the concentration that inhibits the measured activity by half. For `CCn1c(-c2nc3cc(C(=O)N4CCC[C@@H](N)C4)ccn3c2C)cc2ccccc21` [Compound 4, (R)-(3-aminopiperidin-1-yl)(2-(1-ethyl-1H-indol-2-yl)-3-methylimidazo[1,2-a]pyridin-7-yl)methanone], the IC50 was under 100 nM.
The figure for `Cc1csc(Cn2c(-c3nc4cc(C(=O)N5CCC[C@@H](N)C5)cc5c4n3CCO5)cc3ccccc32)n1` [Compound 145, (R)-(3-aminopiperidin-1-yl)(2-(1-((4-methylthiazol-2-yl)methyl)-1H-indol-2-yl)-3,4-dihydro-5-oxa-1,2a-diazaacenaphthylen-7-yl)methanone] is under 100 nM.
For `Cc1c(-c2cc3ccccc3n2CC(C)C)nc2cc(C(=O)N3CCC[C@@H](N)C3)ccn12` [Compound 60, (R)-(3-aminopiperidin-1-yl)(2-(1-isobutyl-1H-indol-2-yl)-3-methylimidazo[1,2-a]pyridin-7-yl)methanone], the IC50 was over 1000 nM.
Consider `COc1ccc2cc(-c3nc4cc(C(=O)N5CCC[C@@H](N)C5)cc5c4n3CCN5C)n(CC3CC3)c2c1` [Compound 160, (R)-(3-aminopiperidin-1-yl)(2-(1-(cyclopropylmethyl)-6-methoxy-1H-indol-2-yl)-6-methyl-5,6-dihydro-4H-imidazo[1,5,4-de]quinoxalin-8-yl)methanone], for which the IC50 was under 100 nM.
On to `N[C@@H]1CCCN(C(=O)c2cc3c4c(c2)nc(-c2cc5ccccc5n2Cc2ccccc2F)n4CCO3)C1` [Compound 100, (R)-(3-aminopiperidin-1-yl)(2-(1-(2-fluorobenzyl)-1H-indol-2-yl)-3,4-dihydro-5-oxa-1,2a-diazaacenaphthylen-7-yl)methanone], for which the IC50 was under 100 nM.

Values taken from US20220047569A1, “METHOD AND COMPOUND FOR USE, IN TREATING AND/OR PREVENTING NETOSIS” (Jubilant EpiPad LLC, priority 2020, published 2022).
